Measurements reported in patent US20210284691A1, “CBX8 CHROMDOMAIN INHIBITORS AND THE USES THEREOF” (Purdue Research Foundation, priority 2019, published 2021).
Square brackets hold non-standard residues; d marks the D form. Peptide text beside a SMILES is read from it. * marks the point of attachment. Tyr(3-Cl) = N[C@@H](Cc1ccc(O)c(Cl)c1)C(=O)O; Benzoyl(3,5-Cl2) = O=C(c1cc(Cl)cc(Cl)c1)*; Lys(Et2) = CCN(CC)CCCC[C@H](N)C(=O)O; Gly(cPent) = N[C@H](C(=O)O)C1CCCC1; NH(propargyl) = C#CCN*

Tests used:
Type in all cases: cell-based
[1] = molecular target: T1, CBX2 binding to chromatin (Homo sapiens, UniProt Q14781); test: ChIP-qPCR in K562 cells
T1 construct: endogenous in cells; host or cells: HEK293T (A21); K562 (A22)
T1 sequence (Q14781 whole entry): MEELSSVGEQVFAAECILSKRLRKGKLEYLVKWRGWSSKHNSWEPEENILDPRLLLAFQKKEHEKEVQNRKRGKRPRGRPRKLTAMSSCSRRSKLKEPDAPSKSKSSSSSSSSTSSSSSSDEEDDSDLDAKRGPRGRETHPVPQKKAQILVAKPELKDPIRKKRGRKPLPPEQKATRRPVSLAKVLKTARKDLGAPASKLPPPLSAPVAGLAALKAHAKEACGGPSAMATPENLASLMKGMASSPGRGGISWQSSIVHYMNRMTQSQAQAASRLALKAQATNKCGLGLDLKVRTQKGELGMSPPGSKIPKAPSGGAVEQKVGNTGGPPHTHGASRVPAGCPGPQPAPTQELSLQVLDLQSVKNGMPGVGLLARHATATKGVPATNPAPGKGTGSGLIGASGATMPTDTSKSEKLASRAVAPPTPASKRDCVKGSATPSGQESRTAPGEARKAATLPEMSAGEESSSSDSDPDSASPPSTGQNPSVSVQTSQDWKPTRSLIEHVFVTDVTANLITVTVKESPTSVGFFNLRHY
Experimental: (§1) FIGS. 11A-11E: Cellular Activity of CBX2 ChD Ligand. FIG. 11A) Relative cytosolic access of SW2_152F conjugated to a chloroalkane (SW2_152F-CA, SEQ ID NO: 28) was evaluated using chloroalkane penetration assay (CAPA). The half maximal cell penetration value (CP50) of SW2_152F-CA was determined for SW2_152F-CA and CBX8 inhibitor SW2_110A-CA. FIG. 11B) Chemoprecipitations from HEK293T nuclear lysates using biotinylated SW2_152F (SW2_152F-B, SEQ ID NO: 29) were analyzed using immunoblot analysis. FIG. 11C) Analysis and quantification of SW2_152F in abrogating bulk binding of endogenous CBX proteins to chromatin in HEK293T cells by Sequential Salt Extraction. FIG. 11D). Chromatin immunoprecipitation (ChIP) from K562 cells using antibodies against IgG, H3K27me3, CBX2 and CBX8 was followed by quantitative PCR of genomic regions near Tm9SF4 (negative locus), TCF21, Fyn-2, and PAX7. Cells were treated with 10 μM SW2_152F for 4 h prior to harvest. FIG. 11E) Chromatin immunoprecipitation (ChIP) in Hs68 fibroblast cells using antibodies against IgG, CBX7, and CBX8 followed by quantitative PCR of genomic regions at LMNB2 (negative locus), CCND2, and RUNX3. Cells were treated with 100 μM SW2_152F for 4 h prior to harvest. For all qPCR, error bars represent SEM n=3 biological replicates, p-values were calculated using two-tailed Student's t-test, * p<0.05, **=p<0.01, ***=p<0.001, ****=p<0.0001.
(§2) ChIP-qPCR. After validating selectivity using lysate and bulk chromatin, we wanted to determine whether the inhibitor can disrupt CBX2 binding to chromatin in live cells. We used chromatin immunoprecipitation (ChIP) followed by quantitative PCR (ChIP-qPCR) of sites with CBX2, CBX8 and H3K27me3 enrichment in K562 ChIP-Seq datasets in ENCODE (M. Azkanaz, et al., Elife 2019). We evaluated effects of compound treatment at both 10 μM and 100 μM SW2_152F. […] In order to evaluate SW2_152F activity against a paralog with no binding to SW2_152F in vitro, CBX7 ChIP-qPCR was performed in Hs68 fibroblast cells, which have no detectable CBX2 expression (H. Pemberton, et al., Genome Biol. 2014).

[2] = molecular target: T2, CBX8 binding to chromatin (Homo sapiens, UniProt Q9HC52); test: ChIP-qPCR in K562 cells
T2 construct: endogenous in cells; host or cells: Hs68 fibroblasts (A16); HEK293T (A19); K562 (A23)
T2 sequence (Q9HC52 1-389): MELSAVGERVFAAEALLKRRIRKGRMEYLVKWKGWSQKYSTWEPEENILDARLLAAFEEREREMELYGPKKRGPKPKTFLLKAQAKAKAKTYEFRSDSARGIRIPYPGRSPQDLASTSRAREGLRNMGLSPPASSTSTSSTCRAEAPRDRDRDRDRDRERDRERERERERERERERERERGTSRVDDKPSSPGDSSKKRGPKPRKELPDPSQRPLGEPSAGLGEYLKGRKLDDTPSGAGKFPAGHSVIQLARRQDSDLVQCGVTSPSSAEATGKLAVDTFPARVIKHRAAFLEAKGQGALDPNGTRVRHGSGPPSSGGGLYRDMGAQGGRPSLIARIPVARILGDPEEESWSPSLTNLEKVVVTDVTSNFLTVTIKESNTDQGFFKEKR
Experimental: as §1, §2

[3] = test system: KLK3/TMPRSS2/AR/CBX2 expression; test: Transcriptional fold change in LNCaP_NED cells; conditions: 10 μM or 50 μM, 48 hours
Text: FIG. 12A). Neuroendocrine differentiation (NED) of prostate cancer induced by androgen deprivation. Representative pictures of LNCaP cells treated with normal media or charcoal-stripped serum (CSS) media for 6 days to induce neuroendocrine differentiation (LNCaP_NED). FIG. 12B). Transcriptional fold changes of KLK3/TMPRSS2/ENO2/CHGA were quantified normalized to control gene YWHAZ upon CSS media treatment for 6 or 9 days. FIG. 12C). Western blotting of CBX paralogs in LNCaP and LNCaP_NED cells generated from 14-day CSS treatment. FIG. 12D). Cell proliferation of LNCaP_NED following 5 days incubation with 2 or 10 μM SW2_152F. DMSO was used as negative control. FIG. 12E). LNCaP_NED cells were treated with 10 μM SW2_152F for 24 h-96 h. Cell morphology pictures were captured starting from 24 h. Average cell size were plotted at 24 h or 48 h for both DMSO group and compound treated group. FIG. 12F). LNCaP_NED cells were treated with 10 μM or 50 μM SW2_152F for 48 hours. […] Binding of H3K27me3 and CBX2 at specific genomic sites (KLK3/TMPRSS2, e: enhancer, p: promoter) were evaluated using chromatin immunoprecipitation-qPCR. For all experiments in the figure, error bars represent SEM n=3 biological replicates, p-values were calculated using two-tailed Student's t-test, *=p<0.05, **=p<0.01, ***=p<0.001, ****=p<0.0001. […]

CBX2 binding, ChIP-qPCR ([1]; 10 μM, 4 h): significant reduction of CBX2 binding
CBX8 binding, ChIP-qPCR ([2]; 10 μM, 4 h): not CBX8 binding
Structure (SMILES): C#CCNC(=O)[C@H](CO)NC(=O)[C@H](CCCCN(CC)CC)NC(=O)[C@@H](NC(=O)[C@@H](NC(=O)[C@H](Cc1ccc(O)c(Cl)c1)NC(=O)c1cc(Cl)cc(Cl)c1)C1CCCC1)[C@@H](C)CC [SW2_152F] ({Benzoyl(3,5-Cl2)}-[Tyr(3-Cl)][Gly(cPent)]I[Lys(Et2)]S-{NH(propargyl)})
CBX2 binding, ChIP-qPCR ([1]; 100 μM): significant reduction of both CBX2 and CBX8 binding
CBX8 binding, ChIP-qPCR ([2]; 100 μM): significant reduction of both CBX2 and CBX8 binding
CBX2 expression [3]: remained unchanged
expression of AR and AR-target genes (TMPRSS2 and KLK3) [3]: significantly increased
